In BindingDB's records for patent US11149066 (Daiichi Sankyo, 2021):
Positions of bridges follow the written chain, without caps; N, C: chain ends. Residues, ends and D or L forms follow the SMILES beside them.

Target: Thrombospondin-1 (Homo sapiens, UniProt P07996)
Assay: TSP1 inhibitory activity
Protocol: As referred to herein, the TSP1 inhibitory activity refers to the activity to inhibit one or more effects of TSP1, including angiostatic effect. The TSP1 inhibitory activity is measured by a cell adhesion inhibition assay using human TSP1 and vascular endothelial cells as described hereinbelow in the Examples section. In this assay, when the 50% inhibitory concentration (IC5O) of a test substance is 200 nM or less, the test substance is determined to have TSP1 inhibitory activity.

Sequence of Thrombospondin-1 (P07996 whole entry): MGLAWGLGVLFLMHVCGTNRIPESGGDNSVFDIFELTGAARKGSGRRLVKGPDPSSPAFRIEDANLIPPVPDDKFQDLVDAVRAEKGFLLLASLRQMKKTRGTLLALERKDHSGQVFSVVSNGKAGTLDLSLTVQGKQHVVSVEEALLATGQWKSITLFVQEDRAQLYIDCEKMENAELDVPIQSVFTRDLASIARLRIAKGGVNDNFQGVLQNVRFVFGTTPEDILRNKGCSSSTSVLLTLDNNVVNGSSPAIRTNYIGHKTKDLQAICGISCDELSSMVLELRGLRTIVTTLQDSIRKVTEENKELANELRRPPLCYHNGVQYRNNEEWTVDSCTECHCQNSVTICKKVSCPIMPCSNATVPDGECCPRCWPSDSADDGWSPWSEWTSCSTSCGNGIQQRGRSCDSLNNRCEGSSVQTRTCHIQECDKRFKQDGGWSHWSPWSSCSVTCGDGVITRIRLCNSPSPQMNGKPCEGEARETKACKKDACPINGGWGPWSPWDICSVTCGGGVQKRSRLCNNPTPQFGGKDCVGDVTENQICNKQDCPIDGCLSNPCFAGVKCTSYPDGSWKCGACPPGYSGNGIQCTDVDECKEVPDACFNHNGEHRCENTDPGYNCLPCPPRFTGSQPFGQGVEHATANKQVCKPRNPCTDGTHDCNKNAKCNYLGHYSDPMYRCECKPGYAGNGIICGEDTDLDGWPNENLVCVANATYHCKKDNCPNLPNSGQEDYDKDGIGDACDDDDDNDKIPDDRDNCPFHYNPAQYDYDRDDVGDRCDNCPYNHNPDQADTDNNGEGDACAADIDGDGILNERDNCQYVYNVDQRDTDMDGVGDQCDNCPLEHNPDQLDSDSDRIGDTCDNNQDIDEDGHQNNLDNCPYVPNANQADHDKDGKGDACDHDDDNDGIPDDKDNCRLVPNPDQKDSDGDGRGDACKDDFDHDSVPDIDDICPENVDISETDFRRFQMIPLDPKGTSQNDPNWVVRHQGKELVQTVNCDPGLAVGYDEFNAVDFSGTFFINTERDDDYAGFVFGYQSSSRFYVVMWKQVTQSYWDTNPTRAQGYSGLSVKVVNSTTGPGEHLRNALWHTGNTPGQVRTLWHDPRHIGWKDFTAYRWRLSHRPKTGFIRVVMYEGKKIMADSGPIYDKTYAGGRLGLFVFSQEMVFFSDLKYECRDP

Kd: 0.091 nM
SMILES: CC[C@H](C)[C@@H]1NC(=O)[C@H](Cc2ccccc2)NC(=O)CSC[C@@H](C(N)=O)NC(=O)[C@H](C(C)C)NC(=O)[C@H](Cc2c[nH]c3ccccc23)NC(=O)[C@H](CCCNC(=N)N)NC(=O)[C@H](C(C)C)NC(=O)[C@H](Cc2c[nH]c3ccccc23)NC(=O)[C@H](CC(N)=O)NC(=O)[C@H](CCCCN)NC(=O)CNC(=O)[C@H](CO)NC1=O [US11149066, Compound 10] ({CH2CO}-FISGKNWVRWVC-NH2; thioether N-12)
